Measurements: PMC10287566, “Signaling-specific inhibition of the CB1 receptor for cannabis use disorder: phase 1 and phase 2a randomized trials” (Nature Medicine, 2023)

Assays:
Test in all cases: Eurofins binding screen
[1] = target: Adrenergic beta2 (Homo sapiens, UniProt P07550)
[2] = target: Endothelin ETA (Homo sapiens, UniProt P25101)
[3] = target: Adenosine A3 (Homo sapiens, UniProt P0DMS8)
[4] = target: Norepinephrine transporter NET (Homo sapiens, UniProt P23975)
[5] = target: Dopamine D4.4 (Homo sapiens, UniProt P21917)
Dopamine D4.4, sequence (P21917 whole entry): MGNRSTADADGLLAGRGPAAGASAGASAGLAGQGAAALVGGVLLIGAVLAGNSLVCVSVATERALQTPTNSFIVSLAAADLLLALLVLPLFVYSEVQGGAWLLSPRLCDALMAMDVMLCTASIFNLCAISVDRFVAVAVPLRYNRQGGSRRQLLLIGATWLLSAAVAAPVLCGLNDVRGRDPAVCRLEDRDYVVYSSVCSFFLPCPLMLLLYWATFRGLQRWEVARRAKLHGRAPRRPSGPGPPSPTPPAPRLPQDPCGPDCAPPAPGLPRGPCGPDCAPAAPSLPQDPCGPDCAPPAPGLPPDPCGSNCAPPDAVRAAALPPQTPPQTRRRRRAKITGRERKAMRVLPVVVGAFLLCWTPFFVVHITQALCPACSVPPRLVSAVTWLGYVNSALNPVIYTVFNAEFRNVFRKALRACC

[6] = tested on: Sodium channels Na+-site2; conditions: 10 µM
[7] = target: Galanin GAL2 (Homo sapiens, UniProt O43603)
[8] = target: Histamine H2 (Homo sapiens, UniProt P25021)
[9] = tested on: Bombesin BB; conditions: 10 µM
[10] = tested on: Potassium channels KV; conditions: 10 µM
[11] = target: PAC1 - PACAP (Homo sapiens, UniProt P41586)
[12] = tested on: Calcium channels Ca2+-L; conditions: 10 µM
[13] = target: Serotonin transporter SET (Homo sapiens, UniProt P31645)
Serotonin transporter SET, sequence (P31645 whole entry): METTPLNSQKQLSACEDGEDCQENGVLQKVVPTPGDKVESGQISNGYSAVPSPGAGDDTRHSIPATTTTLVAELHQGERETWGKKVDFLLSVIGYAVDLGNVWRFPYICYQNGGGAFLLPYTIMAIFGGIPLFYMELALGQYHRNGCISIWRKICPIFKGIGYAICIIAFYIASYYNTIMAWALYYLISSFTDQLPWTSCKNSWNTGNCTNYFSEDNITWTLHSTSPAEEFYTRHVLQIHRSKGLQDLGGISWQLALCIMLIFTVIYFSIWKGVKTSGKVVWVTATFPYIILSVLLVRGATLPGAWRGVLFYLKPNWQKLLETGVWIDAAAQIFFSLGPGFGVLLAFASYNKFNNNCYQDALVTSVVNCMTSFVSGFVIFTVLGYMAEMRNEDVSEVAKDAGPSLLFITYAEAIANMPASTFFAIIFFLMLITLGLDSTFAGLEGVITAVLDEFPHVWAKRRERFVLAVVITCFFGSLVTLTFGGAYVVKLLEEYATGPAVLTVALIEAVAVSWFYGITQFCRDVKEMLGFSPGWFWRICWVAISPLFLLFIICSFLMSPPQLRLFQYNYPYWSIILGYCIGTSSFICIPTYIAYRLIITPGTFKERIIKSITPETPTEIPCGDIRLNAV

[14] = target: Dopamine transporter DAT (Homo sapiens, UniProt Q01959)
[15] = target: Vasopressin V1a (Homo sapiens, UniProt P37288)
Vasopressin V1a, sequence (P37288 whole entry): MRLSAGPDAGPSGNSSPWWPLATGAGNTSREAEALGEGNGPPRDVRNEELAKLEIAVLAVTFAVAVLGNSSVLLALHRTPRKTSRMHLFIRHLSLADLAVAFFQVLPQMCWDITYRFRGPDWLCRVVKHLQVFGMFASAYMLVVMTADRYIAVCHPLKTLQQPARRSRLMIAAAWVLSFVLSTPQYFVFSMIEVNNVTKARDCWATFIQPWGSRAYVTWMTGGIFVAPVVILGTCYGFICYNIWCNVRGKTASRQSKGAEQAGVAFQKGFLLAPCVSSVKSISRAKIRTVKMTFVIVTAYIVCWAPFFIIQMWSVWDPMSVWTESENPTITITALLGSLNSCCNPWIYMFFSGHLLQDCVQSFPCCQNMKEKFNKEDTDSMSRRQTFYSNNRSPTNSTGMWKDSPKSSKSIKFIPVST

[16] = target: Muscarinic M1 (Homo sapiens, UniProt P11229)
Muscarinic M1, sequence (P11229 whole entry): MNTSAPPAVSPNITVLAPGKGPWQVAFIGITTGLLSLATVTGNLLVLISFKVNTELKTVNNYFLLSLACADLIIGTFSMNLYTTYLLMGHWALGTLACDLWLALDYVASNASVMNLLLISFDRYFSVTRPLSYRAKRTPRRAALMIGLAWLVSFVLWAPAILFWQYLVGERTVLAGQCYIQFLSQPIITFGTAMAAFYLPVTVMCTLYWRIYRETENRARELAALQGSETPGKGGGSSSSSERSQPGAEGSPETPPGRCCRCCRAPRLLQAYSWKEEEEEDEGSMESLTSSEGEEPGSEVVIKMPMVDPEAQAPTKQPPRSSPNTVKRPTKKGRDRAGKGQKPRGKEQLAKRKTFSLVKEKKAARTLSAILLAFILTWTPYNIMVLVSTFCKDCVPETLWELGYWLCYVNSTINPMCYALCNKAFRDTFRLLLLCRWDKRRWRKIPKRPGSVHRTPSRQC

[17] = target: Endothelin ETB (Homo sapiens, UniProt P24530)
Endothelin ETB, sequence (P24530 27-442): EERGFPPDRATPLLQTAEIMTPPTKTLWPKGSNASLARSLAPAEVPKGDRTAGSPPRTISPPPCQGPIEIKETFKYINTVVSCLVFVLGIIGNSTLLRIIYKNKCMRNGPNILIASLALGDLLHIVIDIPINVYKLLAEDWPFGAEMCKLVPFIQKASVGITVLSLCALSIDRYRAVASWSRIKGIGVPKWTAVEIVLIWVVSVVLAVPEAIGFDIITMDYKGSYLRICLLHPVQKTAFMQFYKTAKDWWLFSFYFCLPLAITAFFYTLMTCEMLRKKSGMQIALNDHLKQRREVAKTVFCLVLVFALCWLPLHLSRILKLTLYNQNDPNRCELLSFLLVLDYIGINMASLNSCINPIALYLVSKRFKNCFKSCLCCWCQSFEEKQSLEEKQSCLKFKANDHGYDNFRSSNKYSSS

[18] = target: Dopamine D5 (Homo sapiens, UniProt P21918)
Dopamine D5, sequence (P21918 whole entry): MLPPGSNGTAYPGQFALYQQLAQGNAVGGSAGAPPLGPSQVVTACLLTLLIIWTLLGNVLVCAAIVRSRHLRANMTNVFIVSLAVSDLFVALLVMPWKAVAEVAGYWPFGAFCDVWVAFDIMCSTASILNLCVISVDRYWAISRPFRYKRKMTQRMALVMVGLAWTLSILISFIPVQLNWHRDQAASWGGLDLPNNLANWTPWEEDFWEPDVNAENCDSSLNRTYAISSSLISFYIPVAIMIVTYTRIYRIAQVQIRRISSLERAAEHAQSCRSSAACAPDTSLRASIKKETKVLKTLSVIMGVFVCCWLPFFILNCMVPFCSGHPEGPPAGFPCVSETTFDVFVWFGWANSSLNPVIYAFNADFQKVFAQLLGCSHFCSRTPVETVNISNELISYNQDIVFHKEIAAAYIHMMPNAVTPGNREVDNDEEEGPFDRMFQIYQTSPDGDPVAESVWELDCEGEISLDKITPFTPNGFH

[19] = target: Melatonin MT1 (ML1A) (Homo sapiens, UniProt P48039)
Melatonin MT1 (ML1A), sequence (P48039 whole entry): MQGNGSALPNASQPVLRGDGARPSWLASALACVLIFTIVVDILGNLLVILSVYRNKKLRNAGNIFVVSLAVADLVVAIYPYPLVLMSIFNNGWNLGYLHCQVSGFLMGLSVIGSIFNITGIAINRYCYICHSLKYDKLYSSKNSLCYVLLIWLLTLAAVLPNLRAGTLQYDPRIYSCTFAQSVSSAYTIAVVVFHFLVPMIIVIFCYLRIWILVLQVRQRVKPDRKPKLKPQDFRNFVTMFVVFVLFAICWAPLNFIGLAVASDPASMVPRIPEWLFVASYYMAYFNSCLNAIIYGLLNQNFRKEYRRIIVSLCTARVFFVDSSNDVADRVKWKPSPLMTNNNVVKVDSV

[20] = tested on: Adrenergic alpha1; conditions: 10 µM
[21] = target: Serotonin 5-HT2A (Homo sapiens, UniProt P28223)
[22] = target: Cannabinoid CB1 (Homo sapiens, UniProt P21554)
[23] = tested on: TNF-alpha; conditions: 10 µM
[24] = target: Bradykinin B2 (Homo sapiens, UniProt P30411)
Bradykinin B2, sequence (P30411 whole entry): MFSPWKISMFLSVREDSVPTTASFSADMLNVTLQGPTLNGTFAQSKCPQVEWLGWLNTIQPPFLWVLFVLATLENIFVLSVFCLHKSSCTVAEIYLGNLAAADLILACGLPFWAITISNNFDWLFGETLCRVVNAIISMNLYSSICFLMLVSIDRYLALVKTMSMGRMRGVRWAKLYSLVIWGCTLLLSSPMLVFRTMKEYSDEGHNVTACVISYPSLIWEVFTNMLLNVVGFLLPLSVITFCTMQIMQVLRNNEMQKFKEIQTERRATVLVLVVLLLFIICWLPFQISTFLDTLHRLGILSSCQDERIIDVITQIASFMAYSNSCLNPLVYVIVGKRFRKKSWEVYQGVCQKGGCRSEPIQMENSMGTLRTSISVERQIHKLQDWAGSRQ

[25] = tested on: Serotonin 5-HT1B; conditions: 10 µM
[26] = target: Cholecystokinin CCK2 (CCKB) (Homo sapiens, UniProt P32239)
Cholecystokinin CCK2 (CCKB), sequence (P32239 whole entry): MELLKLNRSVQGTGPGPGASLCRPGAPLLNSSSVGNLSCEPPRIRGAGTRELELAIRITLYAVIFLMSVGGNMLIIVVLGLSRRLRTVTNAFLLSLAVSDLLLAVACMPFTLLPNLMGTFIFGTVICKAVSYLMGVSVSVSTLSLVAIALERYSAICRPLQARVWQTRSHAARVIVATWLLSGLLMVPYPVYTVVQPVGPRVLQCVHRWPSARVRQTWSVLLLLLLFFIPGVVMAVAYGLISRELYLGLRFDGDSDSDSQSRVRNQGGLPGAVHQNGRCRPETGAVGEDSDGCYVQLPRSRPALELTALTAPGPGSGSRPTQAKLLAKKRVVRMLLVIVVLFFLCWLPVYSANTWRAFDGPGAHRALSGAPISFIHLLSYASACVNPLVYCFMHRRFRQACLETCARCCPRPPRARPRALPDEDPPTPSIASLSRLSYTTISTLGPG

[27] = target: Angiotensin-II AT1 (Homo sapiens, UniProt P30556)
[28] = tested on: BZD (central); conditions: 10 µM
[29] = target: Serotonin 5-HT6 (Homo sapiens, UniProt P50406)
[30] = target: Dopamine D2S (Homo sapiens, UniProt P14416)
[31] = target: Serotonin 5-HT7 (Homo sapiens, UniProt P34969)
[32] = target: Neurokinin NK1 (Homo sapiens, UniProt P25103)
[33] = target: Histamine H1 (Homo sapiens, UniProt P35367)
[34] = target: Melanocortin MC4 (Homo sapiens, UniProt P32245)
[35] = target: Serotonin 5-HT3 (Homo sapiens, UniProt P46098)
[36] = target: PPAR gamma (Homo sapiens, UniProt P37231)
PPAR gamma, sequence (P37231 whole entry): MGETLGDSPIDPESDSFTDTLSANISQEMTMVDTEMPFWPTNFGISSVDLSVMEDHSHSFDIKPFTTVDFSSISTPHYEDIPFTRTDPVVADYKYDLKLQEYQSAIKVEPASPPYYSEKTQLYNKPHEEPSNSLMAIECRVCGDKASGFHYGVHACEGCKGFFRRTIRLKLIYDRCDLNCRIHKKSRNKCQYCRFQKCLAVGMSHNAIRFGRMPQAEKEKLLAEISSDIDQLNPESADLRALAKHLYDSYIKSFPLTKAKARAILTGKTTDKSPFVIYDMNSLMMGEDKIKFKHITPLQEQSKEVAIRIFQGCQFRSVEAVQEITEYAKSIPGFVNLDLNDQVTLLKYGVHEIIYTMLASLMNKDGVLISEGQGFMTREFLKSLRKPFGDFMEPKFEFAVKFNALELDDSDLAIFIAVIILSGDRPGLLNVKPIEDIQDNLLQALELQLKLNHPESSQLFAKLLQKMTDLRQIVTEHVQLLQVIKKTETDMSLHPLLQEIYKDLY

[37] = target: Muscarinic M3 (Homo sapiens, UniProt P20309)
[38] = target: Cannabinoid CB2 (Homo sapiens, UniProt P34972)
Cannabinoid CB2, sequence (P34972 whole entry): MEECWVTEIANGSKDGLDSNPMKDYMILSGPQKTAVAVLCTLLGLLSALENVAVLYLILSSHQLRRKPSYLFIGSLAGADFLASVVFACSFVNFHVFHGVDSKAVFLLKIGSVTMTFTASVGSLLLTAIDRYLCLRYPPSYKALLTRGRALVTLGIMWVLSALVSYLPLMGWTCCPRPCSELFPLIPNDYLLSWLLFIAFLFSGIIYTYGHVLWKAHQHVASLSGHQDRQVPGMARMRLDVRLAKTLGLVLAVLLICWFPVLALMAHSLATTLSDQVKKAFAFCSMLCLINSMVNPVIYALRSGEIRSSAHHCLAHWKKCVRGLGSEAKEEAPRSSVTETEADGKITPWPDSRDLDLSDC

[39] = read-out: Percent inhibition of control specific binding

## COc1ccc(CO[C@H]2CC[C@@]3(C)C(=CC[C@H]4[C@@H]5CC[C@H](C(C)=O)[C@@]5(C)CC[C@@H]43)C2)cc1 [AEF0117, 3β-(4-methoxybenzyloxy)pregn-5-en-20-one]
[1]; [39]
  inhibition at 10 µM: 4%
[2]; [39]
  inhibition at 10 µM: -4%
[3]; [39]
  inhibition at 10 µM: -20%
[4]; [39]
  inhibition at 10 µM: -5%
[5]; [39]
  inhibition at 10 µM: -7%
[6]
  Percent inhibition of control specific binding: 5%
[7]; [39]
  inhibition at 10 µM: -9%
[8]; [39]
  inhibition at 10 µM: 3%
[9]
  Percent inhibition of control specific binding: 12%
[10]
  Percent inhibition of control specific binding: -5%
[11]; [39]
  inhibition at 10 µM: 4%
[12]
  Percent inhibition of control specific binding: -1%
[13]; [39]
  inhibition at 10 µM: 8%
[14]; [39]
  inhibition at 10 µM: 0%
[15]; [39]
  inhibition at 10 µM: 0%
[16]; [39]
  inhibition at 10 µM: -14%
[17]; [39]
  inhibition at 10 µM: 2%
[18]; [39]
  inhibition at 10 µM: -2%
[19]; [39]
  inhibition at 10 µM: -11%
[20]
  Percent inhibition of control specific binding: -5%
[21]; [39]
  inhibition at 10 µM: 2%
[22]; [39]
  inhibition at 10 µM: 11%
[23]
  Percent inhibition of control specific binding: -5%
[24]; [39]
  inhibition at 10 µM: -1%
[25]
  Percent inhibition of control specific binding: -15%
[26]; [39]
  inhibition at 10 µM: -35%
[27]; [39]
  inhibition at 10 µM: 7%
[28]
  Percent inhibition of control specific binding: 1%
[29]; [39]
  inhibition at 10 µM: -2%
[30]; [39]
  inhibition at 10 µM: -1%
[31]; [39]
  inhibition at 10 µM: -1%
[32]; [39]
  inhibition at 10 µM: -18%
[33]; [39]
  inhibition at 10 µM: 4%
[34]; [39]
  inhibition at 10 µM: -8%
[35]; [39]
  inhibition at 10 µM: -7%
[36]; [39]
  inhibition at 10 µM: 7%
[37]; [39]
  inhibition at 10 µM: -18%
[38]; [39]
  inhibition at 10 µM: -2%

## CC(=O)[C@H]1CC[C@H]2[C@@H]3CC=C4C[C@@H](O)CC[C@]4(C)[C@H]3CC[C@]12C [pregnenolone, reference compound]
[1]; 10 µM
  Percent inhibition of control specific binding: -5%
[2]; 10 µM
  Percent inhibition of control specific binding: -3%
[3]; 10 µM
  Percent inhibition of control specific binding: 11%
[4]; 10 µM
  Percent inhibition of control specific binding: -12%
[5]; 10 µM
  Percent inhibition of control specific binding: 20%
[6]
  Percent inhibition of control specific binding: 23%
[7]; 10 µM
  Percent inhibition of control specific binding: 1%
[8]; 10 µM
  Percent inhibition of control specific binding: 9%
[9]
  Percent inhibition of control specific binding: -18%
[10]
  Percent inhibition of control specific binding: -23%
[11]; 10 µM
  Percent inhibition of control specific binding: -25%
[12]
  Percent inhibition of control specific binding: -19%
[13]; 10 µM
  Percent inhibition of control specific binding: 1%
[14]; 10 µM
  Percent inhibition of control specific binding: -12%
[15]; 10 µM
  Percent inhibition of control specific binding: 10%
[16]; 10 µM
  Percent inhibition of control specific binding: -14%
[17]; 10 µM
  Percent inhibition of control specific binding: 4%
[18]; 10 µM
  Percent inhibition of control specific binding: -4%
[19]; 10 µM
  Percent inhibition of control specific binding: 26%
[20]
  Percent inhibition of control specific binding: 1%
[21]; 10 µM
  Percent inhibition of control specific binding: -1%
[22]; 10 µM
  Percent inhibition of control specific binding: 10%
[23]
  Percent inhibition of control specific binding: 4%
[24]; 10 µM
  Percent inhibition of control specific binding: -9%
[25]
  Percent inhibition of control specific binding: -28%
[26]; 10 µM
  Percent inhibition of control specific binding: -38%
[27]; 10 µM
  Percent inhibition of control specific binding: -28%
[28]
  Percent inhibition of control specific binding: -43%
[29]; 10 µM
  Percent inhibition of control specific binding: 5%
[30]; 10 µM
  Percent inhibition of control specific binding: 5%
[31]; 10 µM
  Percent inhibition of control specific binding: 11%
[32]; 10 µM
  Percent inhibition of control specific binding: 17%
[33]; 10 µM
  Percent inhibition of control specific binding: 0%
[34]; 10 µM
  Percent inhibition of control specific binding: -15%
[35]; 10 µM
  Percent inhibition of control specific binding: 6%
[36]; 10 µM
  Percent inhibition of control specific binding: 4%
[37]; 10 µM
  Percent inhibition of control specific binding: 2%
[38]; 10 µM
  Percent inhibition of control specific binding: -19%
